Data reported in patent publication US20240174618A1, “SUBSTITUTED (2-HETEROARYLOXYPHENYL)SULFONATES, SALTS THEREOF AND THEIR USE AS HERBICIDAL AGENTS” (Bayer Aktiengesellschaft, priority 2021, published 2024).

Assays:
Assay type in all cases: in vivo
Kochia scoparia (KCHSC) = test: E. Herbicidal post-emergence efficacy, KCHSC
Description: (§1) Seeds of monocotyledonous and dicotyledonous weeds and crop plants were placed in sandy loam in plastic or organic planting pots, covered with soil and cultivated in a greenhouse under controlled growth conditions. 2 to 3 weeks after sowing, the test plants were treated at the one-leaf stage. The compounds of the invention, formulated in the form of wettable powders (WP) or as emulsion concentrates (EC), were then sprayed onto the green parts of the plants as aqueous suspension or emulsion with addition of 0.5% additive at a water application rate of 600 l/ha (converted). After the test plants had been kept in the greenhouse under optimum growth conditions for about 3 weeks, the activity of the preparations was rated visually in comparison to untreated controls.
(§2) For example, • 100% efficacy=plants have died, • 0% action=like untreated control plants.
(§3) Tables E1a to E12b below show the effects of selected compounds of the general formula (I) according to table 1 on various harmful plants at an application rate corresponding to 320 g/ha or less, which were obtained by the experimental procedure mentioned above.

[1] = tested on: Triticum aestivum (TRZAS); test: D. Pre-emergence effect on useful plants, TRZAS; details: useful plant
Description: (§4) Seeds of monocotyledonous and dicotyledonous weed plants and crop plants were placed in plastic or organic planting pots and covered with soil. The compounds of the invention, formulated in the form of wettable powders (WP) or as emulsion concentrates (EC), were then applied to the surface of the covering soil as aqueous suspension or emulsion with addition of 0.5% additive at a water application rate equivalent to 600 l/ha (converted). After the treatment, the pots were placed in a greenhouse and kept under good growth conditions for the test plants. After about 3 weeks, the efficacy of the preparations was scored visually in comparison with untreated controls as percentages. For example, • 100% efficacy=plants have died, • 0% efficacy=like untreated control plants.
(§5) Tables D1a to D5b below show the effects of selected compounds of the general formula (I) according to table 1 on various useful plants at an application rate corresponding to 320 g/ha or less, which were obtained by the experimental procedure mentioned above.

[2] = tested on: Amaranthus retroflexus (AMARE); test: C. Herbicidal pre-emergence efficacy, AMARE; details: 320 g/ha, scored after about 3 weeks
Description: as §4
Tables C1a to C14b below show the effects of selected compounds of the general formula (I) according to table 1 on various harmful plants at an application rate corresponding to 320 g/ha or less, which were obtained by the experimental procedure mentioned above.

[3] = tested on: Triticum aestivum (TRZAS); test: F. Post-emergence effect on useful plants, TRZAS; details: useful plant
Description: as §1, §2
(§6) Tables F1a to F4 below show the effects of selected compounds of the general formula (I) according to table 1 on various useful plants at an application rate corresponding to 320 g/ha or less, which were obtained by the experimental procedure mentioned above.

Zea mays (ZEAMX) [4] = test: F. Post-emergence effect on useful plants, ZEAMX; details: useful plant
Description: as §1, §2, §6

Veronica persica (VERPE) = test: E. Herbicidal post-emergence efficacy, VERPE
Description: as §1, §2, §3

[5] = tested on: Amaranthus retroflexus (AMARE); test: E. Herbicidal post-emergence efficacy, AMARE
Description: as §1, §2, §3

Zea mays (ZEAMX) [6] = test: D. Pre-emergence effect on useful plants, ZEAMX; details: useful plant, application rate 80 g/ha
Description: as §4, §5

Viola tricolor (VIOTR) = test: E. Herbicidal post-emergence efficacy, VIOTR
Description: as §1, §2, §3

N#Cc1cccc(Oc2ncc(Cl)cn2)c1OS(=O)(=O)CCC(F)(F)F [Example I-82]
80%: Pre-emergence efficacy against AMARE [2] | Post-emergence efficacy against VIOTR in % (Viola tricolor (VIOTR); application rate 80 g/ha) | Post-emergence efficacy against VIOTR in % (Viola tricolor (VIOTR); application rate 320 g/ha)
0%: Pre-emergence efficacy against TRZAS in % ([1]; application rate 80 g/ha) | Pre-emergence efficacy against TRZAS in % ([1]; application rate 320 g/ha) | Post-emergence efficacy against TRZAS in % ([3]; application rate 80 g/ha) | Post-emergence efficacy against TRZAS in % ([3]; application rate 320 g/ha) | Post-emergence efficacy against ZEAMX in % (Zea mays (ZEAMX) [4]; application rate 80 g/ha) | Pre-emergence efficacy against ZEAMX in % (Zea mays (ZEAMX) [6])
90%: Post-emergence efficacy against KCHSC in % (Kochia scoparia (KCHSC); application rate 80 g/ha) | Post-emergence efficacy against KCHSC in % (Kochia scoparia (KCHSC); application rate 320 g/ha) | Post-emergence efficacy against AMARE in % ([5]; application rate 80 g/ha)
20%: Post-emergence efficacy against ZEAMX in % (Zea mays (ZEAMX) [4]; application rate 320 g/ha)
100%: Post-emergence efficacy against VERPE in % (Veronica persica (VERPE); application rate 80 g/ha) | Post-emergence efficacy against VERPE in % (Veronica persica (VERPE); application rate 320 g/ha) | Post-emergence efficacy against AMARE in % ([5]; application rate 320 g/ha)
